Patent US8183239B2, “Substituted piperazines and piperidines as modulators of the neuropeptide Y2 receptor” (Janssen Pharmaceutica NV, priority 2005, dated 2012)

target: T1, Y2 receptors (Homo sapiens, UniProt P49146); assay: Radioligand binding assay ([125I]PYY, KAN-Ts cell membranes); conditions: Table 1, [125I]PYY 80 pM, average of results, read-out: IC50
T1 construct: endogenous in cells; host or cells: KAN-Ts cells (membranes)
T1 sequence (P49146 1-381): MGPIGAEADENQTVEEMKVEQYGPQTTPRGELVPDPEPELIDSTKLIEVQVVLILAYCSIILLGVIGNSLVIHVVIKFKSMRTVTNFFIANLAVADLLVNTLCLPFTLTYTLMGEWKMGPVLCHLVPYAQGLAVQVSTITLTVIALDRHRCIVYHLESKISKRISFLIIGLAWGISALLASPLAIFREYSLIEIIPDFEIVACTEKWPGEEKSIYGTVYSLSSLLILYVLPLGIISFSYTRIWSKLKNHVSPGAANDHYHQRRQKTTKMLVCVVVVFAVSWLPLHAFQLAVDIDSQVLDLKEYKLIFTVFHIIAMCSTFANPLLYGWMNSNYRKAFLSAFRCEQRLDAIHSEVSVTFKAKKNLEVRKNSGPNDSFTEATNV
Description: Radioligand Binding Assay
KAN-Ts endogenously expressing Y2 receptors were used for the radioligand binding assay. Cells were grown to confluence on 150 cm^2 tissue culture plates, washed with phosphate-buffered saline (PBS), and scraped into 50 mL tubes. After centrifugation, the supernatant was aspirated, and the pellets frozen and stored at −80° C. Thawed pellets were homogenized with a polytron tissue grinder for 15 sec in 20 mM Tris-HCl, 5 mM EDTA. The homogenate was centrifuged at 800×g for 5 min and the collected supernatant was recentrifuged at 25000×g for 25 min. The resulting pellet was resuspended in binding buffer (20 mM HEPES, 120 mM NaCl, 0.22 mM KH2PO4, 1.3 mM CaCl2, 0.8 mM MgSO4). Membranes were incubated with [^125I]PYY (80 pM) in the presence or absence of test compound for 1 h at rt. The reaction was stopped by filtration through GF/C filter plates pre-soaked in 0.3% polyethylenimine and subsequently washed with Tris 50 mM, 5 mM EDTA buffer. Plates were dried for 1 h in a 55° C. oven, scintillation fluid was added and the radioactivity was counted in a Packard TopCount. Specific binding to the NPY receptor subtypes was determined by radioactivity that was bound in the presence of […]. Each binding experiment was repeated three to eight times, each in duplicate. IC50 values (i.e. concentration of unlabelled peptide or antagonist required to compete for 50% of specific binding to the radioligand) were calculated using the GraphPad Prism software (GraphPad Software Inc., San Diego Calif.) with a fit to a sigmoidal dose response curve. Data for compounds tested are presented in Tables 1 and 2 as an average of results obtained.

Q: How did the IC50 turn out when `CNc1ccccc1C(=O)Nc1ccc(N2CCN(C(C(=O)OC)c3ccccc3)CC2)cc1` (stereo not shown) [Example 58, {4-[4-(2-Methylamino-benzoylamino)-phenyl]-piperazin-1-yl}-phenyl-acetic acid methyl ester] was run?
A: Its IC50 is 3000 nM.

Q: For `COC(=O)C(c1ccccc1)N1CCN(c2ccc(NC(=O)C3CCCC3)cc2)CC1` (stereo not shown) [Example 59, {4-[4-(Cyclopentanecarbonyl-amino)-phenyl]-piperazin-1-yl}-phenyl-acetic acid methyl ester], which IC50 is on record?
A: Its IC50 is 13100 nM.

Q: Which IC50 does the source give for `CCC(CC)C(=O)Nc1ccc(N2CCN(C(C(=O)OC)c3ccccc3)CC2)cc1` (stereo not shown) [Example 60, {4-[4-(2-Ethyl-butyrylamino)-phenyl]-piperazin-1-yl}-phenyl-acetic acid methyl ester] here?
A: The IC50 was 527 nM.

Q: For `COC(=O)C(c1ccccc1)N1CCN(c2ccc(NC(=O)c3ccccc3)cc2F)CC1` (stereo not shown) [Example 61, [4-(4-Benzoylamino-2-fluoro-phenyl)-piperazin-1-yl]-phenyl-acetic acid methyl ester], which IC50 is on record?
A: The IC50 was 2500 nM.

Q: How did the IC50 turn out when `COC(=O)C(c1ccccc1)N1CCN(c2ccc(NC(=O)c3ccccc3C)cc2F)CC1` (stereo not shown) [Example 62, {4-[2-Fluoro-4-(2-methyl-benzoylamino)-phenyl]-piperazin-1-yl}-phenyl-acetic acid methyl ester] was run?
A: Its IC50 is 1300 nM.

Q: For `CCc1ccccc1C(=O)Nc1ccc(N2CCN(C(C(=O)OC)c3ccccc3)CC2)c(F)c1` (stereo not shown) [Example 63, {4-[4-(2-Ethyl-benzoylamino)-2-fluoro-phenyl]-piperazin-1-yl}-phenyl-acetic acid methyl ester], which IC50 is on record?
A: Its IC50 is 600 nM.

Q: `COC(=O)C(c1ccccc1)N1CCN(c2ccc(NC(=O)c3ccccc3C(C)C)cc2F)CC1` (stereo not shown) [Example 64, {4-[2-Fluoro-4-(2-isopropyl-benzoylamino)-phenyl]-piperazin-1-yl}-phenyl-acetic acid methyl ester] was tested. Which IC50 did it give?
A: Its IC50 is 1000 nM.

Q: For `COC(=O)C(c1ccccc1)N1CCN(c2ccc(NC(=O)c3ccccc3OC)cc2F)CC1` (stereo not shown) [Example 65, {4-[2-Fluoro-4-(2-methoxy-benzoylamino)-phenyl]-piperazin-1-yl}-phenyl-acetic acid methyl ester], which IC50 is on record?
A: The IC50 was 1300 nM.

Q: With `CNc1ccccc1C(=O)Nc1ccc(N2CCN(C(C(=O)OC)c3ccccc3)CC2)c(F)c1` (stereo not shown) [Example 68, {4-[2-Fluoro-4-(2-methylamino-benzoylamino)-phenyl]-piperazin-1-yl}-phenyl-acetic acid methyl ester] as the compound, how does the IC50 read?
A: Its IC50 is 1400 nM.

Q: For `CCc1cccc(C(=O)Nc2ccc(N3CCN(C(C(=O)OC)c4ccccc4)CC3)cc2)c1` (stereo not shown) [Example 69, {4-[4-(3-Ethyl-benzoylamino)-phenyl]-piperazin-1-yl}-phenyl-acetic acid methyl ester], which IC50 is on record?
A: The IC50 was 25000 nM.

Q: How did the IC50 turn out when `COC(=O)C(c1ccccc1)N1CCN(c2ccc(NC(=O)c3cccc(C)c3)cc2)CC1` (stereo not shown) [Example 72, {4-[4-(3-Methyl-benzoylamino)-phenyl]-piperazin-1-yl}-phenyl-acetic acid methyl ester] was run?
A: Its IC50 is 6000 nM.

Q: For `COC(=O)C(c1ccccc1)N1CCN(c2ccc(NC(=O)CCC(C)C)cc2F)CC1` (stereo not shown) [Example 78, {4-[2-Fluoro-4-(4-methyl-pentanoylamino)-phenyl]-piperazin-1-yl}-phenyl-acetic acid methyl ester], which IC50 is on record?
A: The IC50 was 230 nM.

Q: With `CCCCC(CC)C(=O)Nc1ccc(N2CCN(C(C(=O)OC)c3ccccc3)CC2)c(F)c1` (stereo not shown) [Example 79, {4-[4-(2-Ethyl-hexanoylamino)-2-fluoro-phenyl]-piperazin-1-yl}-phenyl-acetic acid methyl ester] as the compound, how does the IC50 read?
A: The IC50 was 100 nM.

Q: For `CCCCC(CC)C(=O)Nc1ccc(N2CCN(C(C(=O)OC)c3ccccc3)CC2)cc1` (stereo not shown) [Example 82, {4-[4-(2-Ethyl-hexanoylamino)-phenyl]-piperazin-1-yl}-phenyl-acetic acid methyl ester], which IC50 is on record?
A: The IC50 was 400 nM.

Q: How did the IC50 turn out when `CCCCCC(=O)Nc1ccc(N2CCN(C(C(=O)OC)c3ccccc3)CC2)cc1` (stereo not shown) [Example 83, [4-(4-Hexanoylamino-phenyl)-piperazin-1-yl]-phenyl-acetic acid methyl ester] was run?
A: Its IC50 is 3600 nM.

Q: With `COC(=O)C(c1ccccc1)N1CCN(c2ccc(NC(=O)CCc3ccccc3)cc2)CC1` (stereo not shown) [Example 84, Phenyl-{4-[4-(3-phenyl-propionylamino)-phenyl]-piperazin-1-yl}-acetic acid methyl ester] as the compound, how does the IC50 read?
A: Its IC50 is 3350 nM.

Q: `CCCC(C)C(=O)Nc1ccc(N2CCN(C(C(=O)OC)c3ccccc3)CC2)cc1` (stereo not shown) [Example 85, {4-[4-(2-Methyl-pentanoylamino)-phenyl]-piperazin-1-yl}-phenyl-acetic acid methyl ester] was tested. Which IC50 did it give?
A: The IC50 was 1300 nM.

Q: How did the IC50 turn out when `CCCCC(=O)Nc1ccc(N2CCN(C(C(=O)OC)c3ccccc3)CC2)cc1` (stereo not shown) [Example 86, [4-(4-Pentanoylamino-phenyl)-piperazin-1-yl]-phenyl-acetic acid methyl ester] was run?
A: The IC50 was 4800 nM.

Q: Which IC50 does the source give for `COC(=O)C(c1ccccc1)N1CCN(c2ccc(NC(=O)CCC(C)C)cc2)CC1` (stereo not shown) [Example 87, {4-[4-(4-Methyl-pentanoylamino)-phenyl]-piperazin-1-yl}-phenyl-acetic acid methyl ester] here?
A: Its IC50 is 1700 nM.

Q: `CCNC(=O)C(c1ccccc1)N1CCN(c2ccc(NC(=O)CCC(C)C)cc2F)CC1` (stereo not shown) [Example 88, 4-Methyl-pentanoic acid {4-[4-(ethylcarbamoyl-phenyl-methyl)-piperazin-1-yl]-3-fluoro-phenyl}-amide] was tested. Which IC50 did it give?
A: The IC50 was 1000 nM.

Q: Which IC50 does the source give for `CCCCC(CC)C(=O)Nc1ccc(N2CCN(C(C(=O)NCC)c3ccccc3)CC2)c(F)c1` (stereo not shown) [Example 89, 2-Ethyl-hexanoic acid {4-[4-(ethylcarbamoyl-phenyl-methyl)-piperazin-1-yl]-3-fluoro-phenyl}-amide] here?
A: Its IC50 is 1040 nM.

Q: With `CCNC(=O)C(c1ccccc1)N1CCN(c2ccc(NC(=O)CCc3ccccc3)cc2F)CC1` (stereo not shown) [Example 90, N-{4-[4-(Ethylcarbamoyl-phenyl-methyl)-piperazin-1-yl]-3-fluoro-phenyl}-3-phenyl-propionamide] as the compound, how does the IC50 read?
A: Its IC50 is 9700 nM.

Q: Which IC50 does the source give for `CCNC(=O)C(c1ccccc1)N1CCN(c2ccc(NC(=O)CCN(CC)CC)cc2F)CC1` (stereo not shown) [Example 91, 3-Diethylamino-N-{4-[4-(ethylcarbamoyl-phenyl-methyl)-piperazin-1-yl]-3-fluoro-phenyl}-propionamide] here?
A: Its IC50 is 10000 nM.

Q: For `CCNC(=O)C(c1ccccc1)N1CCN(c2ccc(NC(=O)Cc3ccncc3)cc2F)CC1` (stereo not shown) [Example 92, N-Ethyl-2-{4-[2-fluoro-4-(2-pyridin-4-yl-acetylamino)-phenyl]-piperazin-1-yl}-2-phenyl-acetamide], which IC50 is on record?
A: Its IC50 is 5100 nM.

Q: With `CCNC(=O)C(c1ccccc1)N1CCN(c2ccc(NC(=O)C(CC3CCCN3)C(F)(F)F)cc2F)CC1` (stereo not shown) [Example 93, N-{4-[4-(Ethylcarbamoyl-phenyl-methyl)-piperazin-1-yl]-3-fluoro-phenyl}-3,3,3-trifluoro-2-pyrrolidin-2-ylmethyl-propionamide] as the compound, how does the IC50 read?
A: Its IC50 is 5000 nM.

Q: Which IC50 does the source give for `CCNC(=O)C(c1ccccc1)N1CCN(c2ccc(NC(=O)C(CC3CCCCN3)C(F)(F)F)cc2F)CC1` (stereo not shown) [Example 94, N-{4-[4-(Ethylcarbamoyl-phenyl-methyl)-piperazin-1-yl]-3-fluoro-phenyl}-3,3,3-trifluoro-2-piperidin-2-ylmethyl-propionamide] here?
A: Its IC50 is 10000 nM.

Q: With `CCNC(=O)C(c1ccccc1)N1CCN(c2ccc(NC(=O)CN3CCN(C(C)C)CC3)cc2F)CC1` (stereo not shown) [Example 95, N-Ethyl-2-(4-{2-fluoro-4-[2-(4-isopropyl-piperazin-1-yl)-acetylamino]-phenyl}-piperazin-1-yl)-2-phenyl-acetamide] as the compound, how does the IC50 read?
A: The IC50 was 10000 nM.

Q: `CCNC(=O)C(c1ccccc1)N1CCN(c2ccc(NC(=O)C3CCN3C3CCCCC3)cc2F)CC1` (stereo not shown) [Example 96, 1-Cyclohexyl-azetidine-2-carboxylic acid {4-[4-(ethylcarbamoyl-phenyl-methyl)-piperazin-1-yl]-3-fluoro-phenyl}-amide] was tested. Which IC50 did it give?
A: The IC50 was 9000 nM.

Q: How did the IC50 turn out when `CCNC(=O)C(c1ccccc1)N1CCN(c2ccc(NC(=O)/C=C\c3ccccc3OC)cc2F)CC1` (stereo not shown) [Example 97, (Z)—N-{4-[4-(Ethylcarbamoyl-phenyl-methyl)-piperazin-1-yl]-3-fluoro-phenyl}-3-(2-methoxy-phenyl)-acryl amide] was run?
A: The IC50 was 1100 nM.

Q: `COC(=O)C(c1ccccc1)N1CCN(c2ccc(NC(=O)c3cccnc3)cc2)CC1` (stereo not shown) [Example 98, Phenyl-(4-{4-[(pyridine-3-carbonyl)-amino]-phenyl}-piperazin-1-yl)-acetic acid methyl ester] was tested. Which IC50 did it give?
A: The IC50 was 12000 nM.

Q: `COC(=O)C(c1ccccc1)N1CCN(c2ccc(NC(=O)c3ccccc3I)cc2F)CC1` (stereo not shown) [Example 99, {4-[2-Fluoro-4-(2-iodo-benzoylamino)-phenyl]-piperazin-1-yl}-phenyl-acetic acid methyl ester] was tested. Which IC50 did it give?
A: Its IC50 is 250 nM.
